# Measured values reported in patent US12378224B2 (Dong-A Socio Holdings Co., Ltd., priority 2016, dated 2025).
# Target: human c-MER catalytic domain (Homo sapiens (Human), UniProt Q12866)
# Assay: TR-FRET Kinase Activity Biochemical Assay (LanthaScreen)
# Conditions: 10 uM ATP, 1 hour, kinase not given
# How it was run: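 Activity was quantified as the ratio of 495 nm to 520 nm emission (excitation 340 nm) in a LanthaScreen TR-FRET format. The enzyme was the human c-MER catalytic domain, and the substrate was fluorescein-poly-GT. Detection used 2 nM Tb anti-phosphotyrosine antibody for 30 min after termination with 10 mM EDTA.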
# Chain of human c-MER catalytic domain (Q12866 587-858): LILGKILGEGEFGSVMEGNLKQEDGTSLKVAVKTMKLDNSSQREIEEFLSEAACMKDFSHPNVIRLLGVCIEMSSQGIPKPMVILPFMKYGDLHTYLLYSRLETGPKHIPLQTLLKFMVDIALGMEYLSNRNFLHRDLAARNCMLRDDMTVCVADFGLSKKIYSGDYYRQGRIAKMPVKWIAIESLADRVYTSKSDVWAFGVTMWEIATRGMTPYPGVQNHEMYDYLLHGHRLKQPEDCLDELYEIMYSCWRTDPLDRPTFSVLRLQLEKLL
row,Structure (SMILES),IC50
1,"Cn1cc(-c2cnc(N)c(C(=O)N[C@@H]3CCN(C(=O)Oc4ccc5cc(OC6CCNCC6)ccc5c4)C3)c2)cn1 [Example 302, 6-(piperidin-4-yloxy)naphthalen-2-yl (R)-3-(2-amino-5-(1-methyl-1H-pyrazol-4-yl)nicotinamido)pyrrolidine-1-carboxylate]",10 to 100 nM
2,"Cn1cc(-c2cnc(N)c(C(=O)N[C@@H]3CCN(C(=O)c4ccc5[nH]ccc5c4)C3)c2)cn1 [Example 502, (R)—N-(1-(1H-indole-5-carbonyl)pyrrolidin-3-yl)-2-amino-5-(1-methyl-1H-pyrazol-4-yl)nicotinamide]",> 1000 nM
3,"Cn1cc(-c2cnc3[nH]nc(N[C@@H]4CCN(C(=O)c5ccc(-c6ccc(OC7CCNCC7)cc6)cc5)C4)c3c2)cn1 [Example 792, (R)-(3-((5-(1-methyl-1H-pyrazol-4-yl)-1H-pyrazolo[3,4-b]pyridin-3-yl)amino)pyrrolidin-1-yl)(4′-(piperidin-4-yloxy)-[1,1′-biphenyl]-4-yl)methanone]",< 10 nM
4,"Cn1cc(-c2cnc(N)c(C(=O)N[C@@H]3CCN(C(=O)Oc4cccc(-c5ccc(CN6CCCC6)cc5)c4)C3)c2)cn1 [Example 333, 4′-(pyrrolidin-1-ylmethyl)-[1,1′-biphenyl]-3-yl (R)-3-(2-amino-5-(1-methyl-1H-pyrazol-4-yl)nicotinamido)pyrrolidine-1-carboxylate]",10 to 100 nM
5,"CN1CCC(Oc2ccc3ccc(OC(=O)N4CC[C@@H](NC(=O)c5cc(-c6cnn(C)c6)cnc5N)C4)cc3c2)CC1 [Example 297, 7-((1-methylpiperidin-4-yl)oxy)naphthalen-2-yl (R)-3-(2-amino-5-(1-methyl-1H-pyrazol-4-yl)nicotinamido)pyrrolidine-1-carboxylate]",100 to 1000 nM
6,"CN(C)CCOc1ccc2cc(OC(=O)N3CC[C@@H](NC(=O)c4cc(-c5cnn(C)c5)cnc4N)C3)ccc2c1 [Example 300, 6-(2-(dimethylamino)ethoxy)naphthalen-2-yl (R)-3-(2-amino-5-(1-methyl-1H-pyrazol-4-yl)nicotinamido)pyrrolidine-1-carboxylate]",100 to 1000 nM
7,"Cn1cc(-c2cnc(N)c(C(=O)N[C@@H]3CCN(C(=O)Oc4cccc(-c5cccc(CN6CCC[C@H](N)C6)c5)c4)C3)c2)cn1 [Example 339, 3′-(((S)-3-aminopiperidin-1-yl)methyl)-[1,1′-biphenyl]-3-yl (R)-3-(2-amino-5-(1-methyl-1H-pyrazol-4-yl)nicotinamido)pyrrolidine-1-carboxylate]",100 to 1000 nM
8,"CN1CCN(c2cc(-c3cnc(N)c(C(=O)N[C@@H]4CCN(C(=O)c5ccc(-c6ccc(F)cc6Cl)cc5)C4)c3)ccn2)CC1 [Example 780, (R)-6-amino-N-(1-(2′-chloro-4′-fluoro-[1,1′-biphenyl]-4-carbonyl)pyrrolidin-3-yl)-2′-(4-methylpiperazin-1-yl) -[3,4′-bipyridine]-5-carboxamide]",< 10 nM
9,"Cn1cc(-c2cnc(N)c(C(=O)N[C@@H]3CCN(C(=O)Oc4cccc(-c5cccc(CN6CCCNCC6)c5)c4)C3)c2)cn1 [Example 341, 3′-((1,4-diazepan-1-yl)methyl)-[1,1′-biphenyl]-3-yl (R)-3-(2-amino-5-(1-methyl-1H-pyrazol-4-yl)nicotinamido)pyrrolidine-1-carboxylate]",10 to 100 nM
10,"Cn1cc(-c2cnc(N)c(C(=O)N[C@H]3CN(C(=O)c4ccc(Br)cc4)C[C@@H]3O)c2)cn1 [Example 732, 2-amino-N-((3S,4S)-1-(4-bromobenzoyl)-4-hydroxypyrrolidin-3-yl)-5-(1-methyl-1H-pyrazol-4-yl)nicotinamide]",> 1000 nM
11,"Cn1cc(-c2cnc(N)c(C(=O)N[C@@H]3CCN(C(=O)Oc4cccc(-c5cccc(CN6CCC(N)CC6)c5)c4)C3)c2)cn1 [Example 340, 3′-((4-aminopiperidin-1-yl)methyl)-[1,1′-biphenyl]-3-yl (R)-3-(2-amino-5-(1-methyl-1H-pyrazol-4-yl)nicotinamido)pyrrolidine-1-carboxylate]",100 to 1000 nM
12,"CN(C)CCOc1ccc2ccc(OC(=O)N3CC[C@@H](NC(=O)c4cc(-c5cnn(C)c5)cnc4N)C3)cc2c1 [Example 296, 7-(2-(dimethylamino)ethoxy)naphthalen-2-yl (R)-3-(2-amino-5-(1-methyl-1H-pyrazol-4-yl)nicotinamido)pyrrolidine-1-carboxylate]",10 to 100 nM
13,"Cn1cc(-c2cnc(N)c(C(=O)N[C@@H]3CCN(C(=O)Oc4cccc(-c5ccc(CN6CC[C@H](N)C6)cc5)c4)C3)c2)cn1 [Example 331, 4′-(((S)-3-aminopyrrolidin-1-yl)methyl)-[1,1′-biphenyl]-3-yl (R)-3-(2-amino-5-(1-methyl-1H-pyrazol-4-yl)nicotinamido)pyrrolidine-1-carboxylate]",10 to 100 nM

# Further lines, results first:
row,IC50,Structure (SMILES)
1,100 to 1000 nM,"Cn1cc(-c2cnc3[nH]nc(N[C@@H]4CCN(C(=O)c5ccc(-c6ccccc6)cc5)C4)c3c2)cn1 [Example 616, (R)-[1,1′-biphenyl]-4-yl(3-((5-(1-methyl-1H-pyrazol-4-yl)-1H-pyrazolo[3,4-b]pyridin-3-yl)amino)pyrrolidin-1-yl)methanone]"
2,10 to 100 nM,"CN(C)Cc1ccc(-c2cccc(NC(=O)N3CC[C@@H](NC(=O)c4cc(-c5cnn(C)c5)cnc4N)C3)c2)cc1 [Example 266, (R)-2-amino-N-(1-((4′-((dimethylamino)methyl)-[1,1′-biphenyl]-3-yl)carbamoyl)pyrrolidin-3-yl)-5-(1-methyl-1H-pyrazol-4-yl)nicotinamide]"
3,10 to 100 nM,"Cn1cc(-c2cnc(N)c(C(=O)NC3(CO)CCN(C(=O)c4ccc(-c5ccccc5)cc4)C3)c2)cn1 (centres unmarked) [Example 671, N-(1-([1,1′-biphenyl]-4-carbonyl)-3-(hydroxymethyl)pyrrolidin-3-yl)-2-amino-5-(1-methyl-1H-pyrazol-4-yl)nicotinamide]"
4,100 to 1000 nM,"CN1CCN(Cc2ccc(-c3cnc(N)c(C(=O)N[C@@H]4CCN(Cc5ccc(Cl)cc5)C4)c3)cc2)CC1 [Example 236, (R)-2-amino-N-(1-(4-chlorobenzyl)pyrrolidin-3-yl)-5-(4-((4-methylpiperazin-1-yl)methyl)phenyl)nicotinamide]"
5,100 to 1000 nM,"Cn1cc(-c2cnc(N)c(C(=O)N[C@@H]3CCN(C(=O)Oc4cccc(-c5cccc(C(=O)NCCC#N)c5)c4)C3)c2)cn1 [Example 277, 3′-((2-cyanoethyl)carbamoyl)-[1,1′-biphenyl]-3-yl (R)-3-(2-amino-5-(1-methyl-1H-pyrazol-4-yl)nicotinamido)pyrrolidine-1-carboxylate]"
6,100 to 1000 nM,"Cn1cc(-c2cnc(N)c(C(=O)N[C@@H]3CCN(Cc4ccccc4-c4ccc(CO)cc4)C3)c2)cn1 [Example 248, (R)-2-amino-N-(1-((4′-(hydroxymethyl)-[1,1′-biphenyl]-2-yl)methyl)pyrrolidin-3-yl)-5-(1-methyl-1H-pyrazol-4-yl)nicotinamide]"
7,100 to 1000 nM,"Cn1cc(-c2cnc(N)c(C(=O)N[C@@H]3CCN(Cc4cccc(OCc5ccccc5)c4)C3)c2)cn1 [Example 222, (R)-2-amino-N-(1-(3-(benzyloxy)benzyl)pyrrolidin-3-yl)-5-(1-methyl-1H-pyrazol-4-yl)nicotinamide]"
8,100 to 1000 nM,"COc1ccccc1CN1CC[C@@H](NC(=O)c2cc(-c3cnn(C4CCNCC4)c3)cnc2N)C1 [Example 167, (R)-2-amino-N-(1-(2-methoxybenzyl)pyrrolidin-3-yl)-5-(1-(piperidin-4-yl)-1H-pyrazol-4-yl)nicotinamide]"
9,10 to 100 nM,"Nc1ncccc1C(=O)N[C@@H]1CCN(C(=O)c2ccc(-c3ccc(F)cc3Cl)cc2)C1 [Example 579, (R)-2-amino-N-(1-(2′-chloro-4′-fluoro-[1,1′-biphenyl]-4-carbonyl)pyrrolidin-3-yl)nicotinamide]"
10,100 to 1000 nM,"Cn1cc(-c2cnc(N)c(C(=O)N[C@@H]3CCN(C(=O)Nc4ccccc4)C3)c2)cn1 [Example 1, (R)-2-amino-5-(1-methyl-1H-pyrazol-4-yl)-N-(1-(phenylcarbamoyl)pyrrolidin-3-yl)nicotinamide]"
11,10 to 100 nM,"CC(C)(C)OC(=O)N1CCC(n2cc(-c3cnc(N)c(C(=O)N[C@@H]4CCN(C(=O)c5ccc(-c6ccccc6)cc5)C4)c3)cn2)CC1 [Example 561, tert-butyl (R)-4-(4-(5-((1-([1,1′-biphenyl]-4-carbonyl)pyrrolidin-3-yl)carbamoyl)-6-aminopyridin-3-yl)-1H-pyrazol-1-yl)piperidine-1-carboxylate]"
12,10 to 100 nM,"Cn1cc(-c2cnc(N)c(C(=O)N[C@@H]3CCN(C(=O)c4ccc(-c5ccc(/C=C/C(=O)O)cc5)cc4)C3)c2)cn1 [Example 677, (R,E)-3-(4′-(3-(2-amino-5-(1-methyl-1H-pyrazol-4-yl)nicotinamido)pyrrolidine-1-carbonyl)-[1,1′-biphenyl]-4-yl) acrylic acid]"
13,100 to 1000 nM,"Cc1noc(C)c1-c1ccc(C(=O)N2CC[C@@H](NC(=O)c3cc(-c4cnn(C)c4)cnc3N)C2)cc1 [Example 539, (R)-2-amino-N-(1-(4-(3,5-dimethylisoxazol-4-yl)benzoyl)pyrrolidin-3-yl)-5-(1-methyl-1H-pyrazol-4-yl)nicotinamide]"
14,100 to 1000 nM,"Cc1nn(C)c(C(F)(F)F)c1-c1ccc(C(=O)N2CC[C@@H](NC(=O)c3cc(-c4cnn(C)c4)cnc3N)C2)cc1 [Example 521, (R)-2-amino-N-(1-(4-(1,3-dimethyl-5-(trifluoromethyl)-1H-pyrazol-4-yl)benzoyl)pyrrolidin-3-yl)-5-(1-methyl-1H-pyrazol-4-yl)nicotinamide]"
15,100 to 1000 nM,"CN1CCN(Cc2ccc(-c3cccc(/C=C/C(=O)N4CC[C@@H](NC(=O)c5cc(-c6cnn(C)c6)cnc5N)C4)c3)cc2)CC1 [Example 431, (R,E)-2-amino-5-(1-methyl-1H-pyrazol-4-yl)-N-(1-(3-(4′-((4-methylpiperazin-1-yl)methyl)-[1,1′-biphenyl]-3-yl)acryloyl)pyrrolidin-3-yl)nicotinamide]"
16,100 to 1000 nM,"Cn1cc(-c2cnc(N)c(C(=O)N[C@@H]3CCN(C(=O)Oc4ccc5ccc(O)cc5c4)C3)c2)cn1 [Example 95, 7-hydroxynaphthalen-2-yl (R)-3-(2-amino-5-(1-methyl-1H-pyrazol-4-yl)nicotinamido)pyrrolidine-1-carboxylate]"
